The text below walks through data of ChEMBL document CHEMBL1201862, “PubChem BioAssay data set” (2004).

The test system of assay [1] is H9c2. Nature of the assay: cells. The following applies: Rattus norvegicus, H9c2, Myocardium. Format: functional, cell-based.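 Note: confirmatory concentration-response retest of ultra-high-throughput screening hits for modulation of myocardial damage; cell death induced by hydrogen peroxide oxidative stress; compound pretreatment for 60 min then peroxide exposure for 2 h; potency is for protecting the cells against peroxide damage rather than for killing them.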
A short description of assay [2]: Luminescence Cell-Based Dose Response HTS to Identify Inhibitors of 5'UTR Stem-Loop Driven Prion Protein mRNA Translation in H4 Neuroglioblastoma Cells. [Related pubchem assays: 1827 (Project Summary), 1813 (Primary HTS)]. The format is functional.
Assay [3] in a line: inhibitors of firefly luciferase expression or activity, dose response, H4 neuroglioma cells, luminescence (AID 1990). The format is functional, cell-based.
Assay [4] in a line: inhibitors of SNCA 5'UTR-driven reporter translation, confirmation, H4 neuroglioma cells, luminescence (AID 1988). Format: functional, cell-based.
The nature of assay [5]: NIH-3T3 fibroblast cytotoxicity, dose response, cytotoxicity control, cell-based, fluorescence, Alamar Blue, secondary assay (AID 2327).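 Note: NIH-3T3 mouse fibroblasts cultured with fluconazole at 8 µg/mL.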 The format is functional. Background: Alamar Blue is a resazurin reagent that responds to reducing activity.
The nature of assay [6]: C. albicans growth with fluconazole, confirmation, fluorescence, retest (AID 2467). The format is functional, cell-based.
A short description of assay [7]: cells. Format: functional.
The nature of assay [8]: cells. Format: functional, cell-based.
A short description of assay [9]: cells. The format is functional, cell-based. The source holds these as a separate data set.
Assay [10] can be described thus: HEp-2 cell cytotoxicity, dose response, cytotoxicity control for RSV inhibitor project, HTS (AID 2410). Format: functional. The conditions noted are these: human respiratory syncytial virus.
The target of assay [11] is Paired box protein Pax-8 (Homo sapiens, UniProt Q06710). Nature of the assay: inhibitors of PAX8-driven TPO luciferase reporter, dose response, RMG-I cells, cherry-pick (AID 687027).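 Note: luciferase reporter driven by Pax8 target thyroperoxidase promoter measured by SteadyGlo luminescence.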 The format is functional, cell-based.
Assay [12] relates to P388/ADR. Nature of the assay: cells. Format: functional. The conditions noted are these: Mus musculus.
The subject of assay [13] is P388. Nature of the assay: cells. Format: functional. The conditions noted are these: Mus musculus.
Assay [14] deals with SN12K1. Nature of the assay: cells. The format is functional. The following applies: Homo sapiens.
Assay [15] concerns Vero. Nature of the assay: cells. The conditions noted are these: Chlorocebus sabaeus. Format: functional.
The test system of assay [16] is INS1. Nature of the assay: beta cell apoptosis inhibitors, cytokine rescue, dose response, luminescence, retest (AID 449756).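 Note: cell death triggered by IL-1 beta plus TNF-alpha plus IFN-gamma mixture; protective hits raise ATP signal compared with cytokine alone wells.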 The conditions noted are these: Rattus norvegicus. The format is functional, cell-based.
Assay [17] concerns Streptococcus. Nature of the assay: Group A Streptococcus viability loss, dose response, counter-screen for streptokinase expression inhibitor project, luminescence, BacTiterGlo (AID 1915).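 Note: potency for reduction of bacterial viability or growth.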 Format: functional, organism-based.
Assay [18] addresses T1, Streptokinase A (Streptococcus pyogenes serotype M1, UniProt P10520).
T1 sequence (P10520 whole entry): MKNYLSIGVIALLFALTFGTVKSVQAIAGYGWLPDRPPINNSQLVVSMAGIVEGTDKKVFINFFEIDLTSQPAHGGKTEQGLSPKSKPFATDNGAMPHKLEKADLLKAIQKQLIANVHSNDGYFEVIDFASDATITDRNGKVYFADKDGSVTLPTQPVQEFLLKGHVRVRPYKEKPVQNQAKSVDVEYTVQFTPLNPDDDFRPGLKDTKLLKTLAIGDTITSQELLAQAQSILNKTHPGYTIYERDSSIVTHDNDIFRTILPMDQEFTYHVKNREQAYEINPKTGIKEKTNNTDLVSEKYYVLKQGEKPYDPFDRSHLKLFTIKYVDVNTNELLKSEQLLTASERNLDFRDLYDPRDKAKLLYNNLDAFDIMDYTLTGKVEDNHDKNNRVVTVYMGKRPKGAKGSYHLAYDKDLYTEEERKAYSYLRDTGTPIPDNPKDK
Nature of the assay: S. pyogenes streptokinase expression inhibitors, potency, dose response, plasminogen activation absorbance, OD405 (AID 1914).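 Note: secreted streptokinase activity via plasminogen activation per viability signal from cell pellet.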 The format is functional, Streptococcus pyogenes M1 GAS.

Assay [19] relates to Streptococcus sp. 'group A'. Nature of the assay: growth inhibition of control SK(-) GAS strain, dose response, counter-screen for streptokinase expression inhibitor project, luminescence, kanamycin, BacTiterGlo, confirmation (AID 1900). Format: functional, organism-based.

The source made the active and inactive calls. Bounds are passed on as bounds.

As usually defined, the IC50 is the concentration that gives 50% inhibition. Usually EC50 stands for the concentration needed to bring the measured effect to its halfway point. Broadly, the CC50 is the concentration giving 50% cytotoxicity. A word on the AC50: it is the concentration giving half of the maximal activity seen. Usually GI50 stands for the concentration that inhibits growth by half.

Paired box protein Pax-8, sequence (Q06710 whole entry): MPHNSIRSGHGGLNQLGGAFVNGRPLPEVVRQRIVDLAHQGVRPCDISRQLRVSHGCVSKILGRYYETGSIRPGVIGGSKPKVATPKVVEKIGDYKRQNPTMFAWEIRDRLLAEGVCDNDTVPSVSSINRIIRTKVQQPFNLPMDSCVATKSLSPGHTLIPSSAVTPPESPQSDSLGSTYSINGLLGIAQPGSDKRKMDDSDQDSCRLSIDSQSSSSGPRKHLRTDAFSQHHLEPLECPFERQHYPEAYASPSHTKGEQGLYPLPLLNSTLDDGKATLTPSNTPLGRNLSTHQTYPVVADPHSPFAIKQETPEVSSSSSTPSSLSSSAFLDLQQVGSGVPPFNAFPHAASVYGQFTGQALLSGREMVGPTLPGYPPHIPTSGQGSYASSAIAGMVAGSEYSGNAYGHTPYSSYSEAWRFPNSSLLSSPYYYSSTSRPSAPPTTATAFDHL

In the case of `Cn1c(=O)[nH]c(=O)c2c1nc(Br)n2CC(O)COc1ccc(Cl)cc1` (stereo not drawn), in assay [1], the IC50 is > 79 µM (inactive).
Take `COc1ccc(C(=O)Nc2ccc[n+](-c3nc4ccccc4nc3[N-]S(=O)(=O)c3ccccc3)c2)cc1`: the concentration giving a half-maximal response (EC50) in assay [2], in assay [3] and in assay [4] was > 120 µM (not active) throughout.
Consider `COc1ccc(C(=O)Nc2ccccc2N2CCOCC2)cc1[N+](=O)[O-]`, for which the EC50 in assay [2], in assay [3] and in [4] was > 120 µM (not active) in each case.
As to `CCc1ccccc1N=C(S)N1CCCCCC1`, the concentration for a half-maximal effect (EC50) is 42.1 µM (active) in assay [5] and > 38 µM (not active) in assay [6].
As to `O=C(c1cc2ccccc2o1)N1CCN(Cc2ccccc2)CC1`, the concentration for half-maximal inhibition (IC50) in [7] is 18.8 µM (active).
With `Oc1nnc(Cc2ccccn2)c2ccccc12`, the IC50 in [1] is 39.4 µM (inactive).
With `COc1ccc(N(CC(=O)Nc2cc(OC)ccc2OC)S(=O)(=O)c2c(C)noc2C)cc1`, the EC50 in [8] and in assay [9] was > 350 µM (not active) each time.
Take `O=c1cc(CSc2ccc([N+](=O)[O-])cc2)nc2sccn12`: in assay [1], the IC50 was > 79 µM (inactive).
`CCOC(=O)COc1ccc2c(=O)c(-c3ccccc3OC)coc2c1`: in assay [7], the IC50 is 1.45 µM (active).
Take `O=C(O)c1ccc(NS(=O)(=O)/C=C/c2ccccc2)cc1O`: the concentration for half-maximal inhibition (IC50) in [7] is 16.6 µM (active).
With `CCN1C(=O)/C(=C/c2nc(O)c3ccccc3n2)c2ccccc21`, the IC50 in assay [1] is > 79 µM (inactive).
Turning to `Cc1ccccc1NC(=O)c1ccccc1O`, the EC50 in [8] is 50.3 µM (active); in assay [9], > 350 µM (not active).
For the compound `CCOC(=O)N1CCC(NC(=O)c2cc3c(-c4ccccc4F)nn(C)c3s2)CC1`, the IC50 in assay [1] is 10.6 µM (active).
As for `Cc1ccc(S(=O)(=O)N2CCOC23CCN(C(=O)c2cc(Cl)ccc2Cl)CC3)cc1`, the EC50 in assay [8] and in assay [9] was > 350 µM (not active) throughout. Besides, the CC50 in assay [10] is 16.3 µM (active).
On to `Cc1cccc(C(=O)OC(C)CN2CCCC2)c1` (stereo not drawn), for which the 50% effective concentration (EC50) in assay [8] and in [9] was > 350 µM (not active) each time.
With `CCOc1ncccc1C(=O)Nc1cccc(-c2nc3cccnc3s2)c1`, the IC50 in [1] was > 79 µM (inactive).
Turning to `Cc1cccnc1NC(=O)c1c(O)c2ccccc2n(C)c1=O`, the IC50 in assay [7] was 25 µM (active).
As to `O=C1c2ccccc2NC(c2cnc3ccccc3n2)N1O` (stereo not drawn), the EC50 in assay [5] was > 160 µM (inactive); in [6], > 38 µM (not active).
In the case of `CC(=O)c1c(C)oc2ccc(N(C(C)=O)S(=O)(=O)c3ccc(Cl)c([N+](=O)[O-])c3)cc12`, the figures for the EC50 in assay [2], in assay [3] and in assay [4] were 8.95 µM (active), 7.87 µM (active) and 7.59 µM (active), respectively.
As for `O=S(=O)(Nc1cccc(-c2cn3cccnc3n2)c1)c1ccc(Cl)cc1`, in assay [11], the half-maximal activity concentration (AC50) was 43.5 µM (active).
Turning to `COc1ccc(NCc2nnc(O)c3ccccc23)cc1`, the IC50 in [1] was > 79 µM (inactive).
In the case of `O=C(CN1C(=O)COc2ccccc21)NCCCN1CCc2ccccc2C1`, the values for the EC50 in assay [5] and in assay [6] were > 150 µM (inactive) and > 38 µM (not active), respectively.
Take `COc1cc2[nH]c(Cl)c([N+](=O)[O-])c2cc1OC`: in [7], the IC50 was 23.1 µM (active).
As to `O=C(Nc1ccccn1)c1cc(-c2cccnc2)nc2ccc(Br)cc12`, the EC50 was 13.5 µM (active) in assay [2], 10.9 µM (active) in assay [3] and 8.63 µM (active) in assay [4].
Regarding `COc1ccc(CC(=O)N2CCN(C(=O)Cc3ccc(OC)cc3)CC2)cc1`, the EC50 in assay [8] and in assay [9] was > 350 µM (not active) each time.
As to `CN(CCc1cn[nH]c1)Cc1nc(C(c2ccccc2)c2ccccc2)no1`, the AC50 in assay [11] is 65 µM (active).
On to `CSc1nc2ccc(S(=O)(=O)Nc3c(C)n(C)n(-c4ccccc4)c3=O)cc2s1`, for which the IC50 in assay [1] is > 79 µM (inactive).
On to `[N-]=[N+]=CC(=O)CCC(N)C(=O)O` (stereo not drawn), for which the GI50 was 0.112 µM (active) in assay [12], 0.0991 µM (active) in [13] and 0.871 µM (active) in assay [14].
The like results for `CC1=CC(O)C(O)C2(C)C1CC1OC(=O)C(O)C3C(C)C(O)C4(O)OCC13C42` (stereo not drawn) were, in that order, > 625 µM (inactive), > 29 µM (inactive) and 3.63 µM (inactive).
As to `O=c1cc(-c2cccnc2)oc2c1ccc1ccccc12`, in assay [1], the IC50 was > 79 µM (inactive).
In the case of `CN(C(=O)CCN1C(=O)/C(=C/c2ccc(F)cc2)SC1=S)C1CCS(=O)(=O)C1` (stereo not drawn), in assay [15], the 50% cytotoxic concentration (CC50) is > 25 µM (active).
Take `CCNC(=O)C(C)C1CCC2(C)C=CC(=O)C(C)=C2C1O` (stereo not drawn): the GI50 in [12], in [13] and in assay [14] was > 100 µM (inactive) throughout.
`O=C(N/N=C/c1cccs1)c1cncc(Br)c1`: the IC50 in assay [7] was 10.7 µM (active).
For `O=NN(CCCl)C(=O)Nc1ccc(Cl)c(Cl)c1`, the GI50 was 65 µM (inactive) in assay [12], 49.1 µM (inactive) in assay [13] and 84.9 µM (inactive) in assay [14].
For the compound `O=C(NCCCCCCNC(=O)n1cc(F)c(=O)[nH]c1=O)NCCCOCCOCCOCCOCCOCCOCCOCCOCCOCCOCCOCCOCCOCCOCCOCCOCCOCCOCCOCCOCCOCCCNC(=O)C(O)C(O)C(O)C(O)CO` (stereo not drawn), the GI50 in [12] is 0.492 µM (active); in assay [13], 0.879 µM (active); in [14], 6.15 µM (inactive).
Take `C/C(=N\NC(=[Se])N(C)C)c1ccccn1`: the concentration for 50% growth inhibition (GI50) in [12], in assay [13] and in [14] was < 0.01 µM (active) each time.
With `O=C1OC2CC=CC1C2` (stereo not drawn), the GI50 in [12], in assay [13] and in [14] was > 100 µM (inactive) each time.
`CC(C)[C@](O)(C(=O)OCC1CC[N+]2([O-])CC[C@@H](O)C12)[C@H](C)O` (stereo partly drawn): the GI50 in assay [12] was > 375 µM (inactive); in assay [13] it was > 364 µM (inactive); in assay [14] it was > 375 µM (inactive).
As for `COc1ccc(/C=N/NC(=O)c2cccnc2)cc1CN1CCc2ccccc2C1`, the IC50 in [1] is 10.6 µM (active).
As to `CC[C@]12C=CCN3CC[C@@]4(c5ccc(OC)cc5N(C)[C@H]4[C@@](O)(C(=O)OC)[C@@H]1OC(C)=O)[C@@H]32`, the GI50 in assay [12] was 95.3 µM (inactive); in [13] it was 14.5 µM (inactive); in [14] it was 193 µM (inactive).
Taken in the same sequence, the figures for `CCOC(=O)CN1CCS/C1=N/C#N` were > 100 µM (inactive), > 100 µM (inactive) and > 100 µM (inactive).
The like results for `COc1cccc2c1[C@H]1CO[C@H]3C4C[C@H](C(=O)O)C([C@@H](C2)N13)N4C` (stereo partly drawn) were, in that order, 0.0906 µM (active), 1.08 µM (active) and 0.483 µM (active).
For `Cc1cc(C)nc(N/N=C/c2cc(Br)ccc2O)n1`, the AC50 in assay [16] was 3.35 µM (active). In addition, the EC50 was 146 µM (active) in assay [17]; > 350 µM (not active) in [8]; > 150 µM (not active) in [18]; 8.51 µM (active) in assay [19]; 7.66 µM (active) in assay [9].
Turning to `CCN(CC)CCNC1=CC(=O)OC12CCCCC2`, the EC50 in assay [8] and in assay [9] was > 350 µM (not active) each time.
On to `CO[C@H]1[C@@H](O)[C@@H](O)O[C@@H](O[C@H]2CC[C@@]3(C)[C@H](CC[C@@H]4[C@@H]3[C@H](O)C[C@]3(C)[C@@H](C5=CC(=O)OC5)CC[C@]43O)C2)[C@@H]1O`, for which, in assay [11], the concentration at half-maximal activity (AC50) is 0.809 µM (active).
Turning to `Nc1ncnc2c1nnn2C1OC(CO)C(O)C1O` (stereo not drawn), the GI50 in [12] was 8.43 µM (inactive); in assay [13] it was 3.42 µM (inactive); in assay [14] it was 1.71 µM (inactive).
